Experimental findings from US20160009686A1, “VEGFR3 INHIBITORS” (CANCER THERAPEUTICS CRC PTY LIMITED, priority 2012, published 2016) are described below.

In experiment [1] the target is VEGFR3 (Homo sapiens, UniProt P35916). The experiment is described as follows: VEGFR3 Phospho ELISA Assay. The format is cell-based. Particulars: HMVEC-dLyAD cells, treated for 1 hour, VEGFC stimulated; phospho VEGFR3 relative to Total VEGFR3. Background: ELISA stands for enzyme-linked immunosorbent assay.
Protocol: Adult human dermal lymphatic microvascular endothelial cells (HMVEC-dLyAD) (Cat# CC-2810, Lonza) were seeded into clear-bottom, TC treated 12 well plates (Cat #665180, Greiner Bio-One) in EGM-2MV (Cat# CC-3202, Lonza) at 180,000 cells/well (volume 1 mL), and the plates incubated at 37° C. and 5% CO2 for 6 hours.
96 well Maxisorp immuno plates (Cat #439454, Nunc) were coated with 100 μL of Total VEGFR3 capture antibody (Part #841888, Human Total VEGFR3/FLT4 ELISA Kit, Cat # DYC3491, R&D Systems), or Phospho VEGFR3 Capture antibody (Part #841885, Human Phospho VEGFR3/FLT4 ELISA Kit, Cat# DYC2724, R&D Systems). The plates were covered and incubated at room temperature overnight.
The coating antibody was flicked out and the plates washed three times with Wash Buffer (Phosphate buffered saline (137 mM NaCl, 2.7 nM KCl, 8.1 nM Na2HPO4, 1.5 mL KH2PO4, pH 7.2-7.4), 0.05% Tween 20). 300 μL of blocking buffer (5% v/v Tween 20, 5% w/v sucrose in PBS) was then added to wells and plate incubated for 2 hours at room temperature. Blocking solution is flicked out and plates washed three times and tapped dry.
Compound dilution series were prepared in EBM-2 (Cat # CC-3156, Lonza)+0.1% BSA (Cat# A8412, Sigma) with constant 0.1% DMSO concentration. 439 μL of sample or vehicle control was added to the cell monolayers. Cells are treated for 1 hour at 37° C. and 5% CO2. 250 ng/mL Recombinant human VEGFC (Cat #2179-VC, R & D Systems) added to wells and plates incubated for an additional 10 minutes at 37° C. and 5% CO2.
(§1) The media and compounds were removed and the cell monolayer washed once in Dulbecco's Phosphate Buffered Saline (Cat #21600-044, Invitrogen). 130 μL of Lysis buffer added to wells and cell lysate harvested and transferred to tubes and stored on ice. Complete lysis buffer was prepared by adding 10 μL Protease Inhibitor Cocktail (Cat # P8340, Sigma-Aldrich), 10 μL PMSF (Phenylmethanesulfonyl fluoride, Cat # P7626, Sigma-Aldrich, prepared as 500 mM DMSO stock) per 1 mL of Phosphosafe™ Extraction Reagent (Cat #71296, Merck).
The harvested samples were then diluted 1:2 in IC Diluent #18 (5% Tween 20/PBS) and 100 μL transferred to the Total and Phospho VEGFR3 coated, blocked and washed 96 well plates and incubated for 2 hours at room temperature. The plates were then washed three times in wash buffer as described above and tapped dry. For detection of Total VEGFR3 100 μL of Detection antibody (Total VEGFR3 Detection Antibody Part#841888 in Total VEGFR3 kit) diluted in IC Diluent #1 (1% w/v BSA (Cat # A7906, Sigma-Aldrich)/PBS) was added to wells and the plate incubated for 2 hours at room temperature. The plate was then washed three times in wash buffer and tapped dry. 100 μL of streptavidin-HPR diluted in IC diluent #1 Streptavidin-HRP, Part #890803 in Total VEGFR3 kit) was added to wells and incubated at room temperature for 20 minutes followed by washing as described above. 100 μL Substrate solution (3,3′,5,5′-Tetramethylbenzidine (TMB) Liquid Substrate System for ELISA, Cat # T0440, Sigma-Aldrich) was added and the plate incubated for 20 minutes in the dark at room temperature followed by the addition of 50 μL stop solution (2 M H2SO4).
Total VEGFR3 levels were quantified using a Multiskan Ascent plate reader and Ascent software fitted with 450 nm filter.
For detection of Phospho VEGFR3, 100 μL of Detection antibody (Anti-Phospho-Tyrosine-HRP Detection Antibody, Part #841403 in Phospho VEGFR3 kit) was diluted in IC Diluent #1 (1% w/v BSA/PBS), added to the wells and the plate incubated for 2 hours at room temperature. The plate was then washed three times in wash buffer as described above and tapped dry. 100 μL Substrate solution (3,3′,5,5′-Tetramethylbenzidine (TMB) Liquid Substrate System for ELISA, Cat # T0440, Sigma-Aldrich) was added and the plate incubated for 20 minutes in the dark at room temperature followed by the addition of 50 μL stop solution (2 M H2SO4).
Experiment [2] addresses VEGFR3 cytoplasmic domain (Homo sapiens, UniProt P35916). The experiment is described as follows: VEGFR3 Biochemical Assay (AlphaScreen). The note with it: GST-fusion enzyme, 500 μM ATP, 90 minutes at 30 degree Celsius (modified form in some cases: Hexa-His-fusion enzyme, 1 μM ATP); read-out: IC50.
Experiment [3] concerns the target T1, VEGFR2 (Homo sapiens, UniProt P35968).
T1 construct: host or cells: HUVEC
The experiment is described as follows: VEGFR2 Phospho ELISA Assay. In kind it is cell-based. The note with it: HUVEC, treated for 1 hour, VEGF stimulated; phospho VEGFR2 relative to Total VEGFR2.
Protocol: Adult human umbilical vein endothelial cells (HUVEC) (Cat# CC-2519, Lonza) were seeded into clear-bottom, TC treated 12 well plates (Cat #665180, Greiner Bio-One) in EGM-2 (Cat# CC-3162, Lonza) at 180,000 cells/well (volume 1 mL), and the plates incubated at 37° C. and 5% CO2 for 6 hours.
96 well Maxisorp immuno plates (Cat #439454, Nunc) were coated with 100 μL of Total VEGFR2 capture antibody (Part #841434, Human Total VEGFR2/FLT4 ELISA Kit, Cat # DYC1780, R&D Systems), or Phospho VEGFR2 Capture antibody (Part #841419, Human Phospho VEGFR2/FLT4 ELISA Kit, Cat# DYC1766, R&D Systems). The plates were covered and incubated at room temperature overnight.
The coating antibody was flicked out and the plates washed three times with Wash Buffer (Phosphate buffered saline (137 mM NaCl, 2.7 nM KCl, 8.1 nM Na2HPO4, 1.5 mL KH2PO4, pH 7.2-7.4), 0.05% Tween 20). 300 μL of Blocking buffer (1% v/v BSA (Cat# A8412, Sigma) in PBS) was then added to wells and plate incubated for 2 hours at room temperature. Blocking solution is flicked out and plates washed three times and tapped dry.
Compound dilution series were prepared in EBM-2 (Cat # CC-3156, Lonza)+0.1% BSA (Cat# A8412, Sigma) with constant 0.1% DMSO concentration. 427.5 μL of sample or vehicle control was added to the cell monolayers. Cells are treated for 1 hour at 37° C. and 5% CO2. 50 ng/mL Recombinant human VEGF (Cat #293-VC, R & D Systems) added to wells and plates incubated for an additional 10 minutes at 37° C. and 5% CO2.
as §1
The plates were then washed three times in wash buffer as described above and tapped dry.
For detection of Total VEGFR2 100 μL of Detection antibody (Total VEGFR2 Detection Antibody Part#841435 in Total VEGFR2 kit) diluted in IC Diluent #14 (20 mM Tris, 137 mM CaCl2, 0.05% Tween20, 0.1% BSA) was added to wells and the plate incubated for 2 hours at room temperature. The plate was then washed three times in wash buffer and tapped dry. 100 μL of streptavidin-HPR diluted in IC diluent #14 Streptavidin-HRP, Part #890803 in Total VEGFR2 kit) was added to wells and incubated at room temperature for 20 minutes followed by washing as described above. 100 μL Substrate solution (3,3′,5,5′-Tetramethylbenzidine (TMB) Liquid Substrate System for ELISA, Cat # T0440, Sigma-Aldrich) was added and the plate incubated for 20 minutes in the dark at room temperature followed by the addition of 50 μL stop solution (2 M H2SO4).
Total VEGFR2 levels were quantified using a Multiskan Ascent plate reader and Ascent software fitted with 450 nm filter.
For detection of Phospho VEGFR2, 100 μL of Detection antibody (Anti-Phospho-Tyrosine-HRP Detection Antibody, Part #841403 in Phospho VEGFR2 kit) was diluted in IC Diluent 14 (20 mM Tris, 137 mM CaCl2, 0.05% Tween20, 0.1% BSA), was added to the wells and the plate incubated for 2 hours at room temperature. The plate was then washed three times in wash buffer as described above and tapped dry. 100 μL Substrate solution (3,3′,5,5′-Tetramethylbenzidine (TMB) Liquid Substrate System for ELISA, Cat # T0440, Sigma-Aldrich) was added and the plate incubated for 20 minutes in the dark at room temperature followed by the addition of 50 μL stop solution (2 M H2SO4).
Phospho VEGFR2 levels were quantified using a Multiscan ascent plate reader and ascent software fitted with 450 nm filter.
IC50 values are determined by first calculating the level of phospho VEGFR2 relative to Total VEGFR2 according to the following formula:

As usually defined, the pIC50 is the negative decadic logarithm of the IC50, by convention in mol/L.

Each structure is given as a SMILES string. pIC50: −log10 of the molar value.

VEGFR3, sequence (P35916 25-1363): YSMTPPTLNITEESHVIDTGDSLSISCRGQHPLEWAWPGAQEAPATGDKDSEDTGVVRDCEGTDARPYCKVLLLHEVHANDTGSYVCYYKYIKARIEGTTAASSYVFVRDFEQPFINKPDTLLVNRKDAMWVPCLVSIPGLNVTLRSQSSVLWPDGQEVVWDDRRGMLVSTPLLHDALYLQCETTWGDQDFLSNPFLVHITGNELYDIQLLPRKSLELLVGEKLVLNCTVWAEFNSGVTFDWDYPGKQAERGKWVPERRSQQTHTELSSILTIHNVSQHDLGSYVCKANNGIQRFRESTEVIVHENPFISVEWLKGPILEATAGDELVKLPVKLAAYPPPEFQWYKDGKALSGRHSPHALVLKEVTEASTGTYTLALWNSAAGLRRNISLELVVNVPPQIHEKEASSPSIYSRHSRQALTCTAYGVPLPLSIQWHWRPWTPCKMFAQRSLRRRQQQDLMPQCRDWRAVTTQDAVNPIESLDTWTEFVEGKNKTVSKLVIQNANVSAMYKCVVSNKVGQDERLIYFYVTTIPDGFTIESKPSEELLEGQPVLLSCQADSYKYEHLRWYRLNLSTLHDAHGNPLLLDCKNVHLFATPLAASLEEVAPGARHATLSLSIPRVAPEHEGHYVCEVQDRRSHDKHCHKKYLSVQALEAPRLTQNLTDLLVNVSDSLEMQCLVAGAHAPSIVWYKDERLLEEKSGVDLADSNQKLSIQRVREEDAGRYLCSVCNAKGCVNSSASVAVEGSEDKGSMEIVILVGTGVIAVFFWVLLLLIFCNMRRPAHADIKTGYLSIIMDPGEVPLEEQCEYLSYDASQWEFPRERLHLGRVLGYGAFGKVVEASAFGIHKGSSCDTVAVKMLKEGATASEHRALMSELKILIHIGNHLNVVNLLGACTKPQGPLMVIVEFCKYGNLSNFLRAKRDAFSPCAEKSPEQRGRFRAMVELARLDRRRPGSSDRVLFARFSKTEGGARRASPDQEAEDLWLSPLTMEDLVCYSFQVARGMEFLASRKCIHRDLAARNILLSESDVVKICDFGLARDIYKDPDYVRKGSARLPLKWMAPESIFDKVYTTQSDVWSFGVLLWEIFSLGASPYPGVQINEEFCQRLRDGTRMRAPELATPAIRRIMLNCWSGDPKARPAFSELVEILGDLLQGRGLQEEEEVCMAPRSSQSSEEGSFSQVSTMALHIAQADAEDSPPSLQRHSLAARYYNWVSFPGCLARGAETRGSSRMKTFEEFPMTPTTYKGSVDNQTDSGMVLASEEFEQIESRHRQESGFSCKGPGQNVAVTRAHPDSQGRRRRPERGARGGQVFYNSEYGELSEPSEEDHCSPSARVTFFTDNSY
VEGFR3 cytoplasmic domain, sequence (P35916 798-1298 isoform P35916-1): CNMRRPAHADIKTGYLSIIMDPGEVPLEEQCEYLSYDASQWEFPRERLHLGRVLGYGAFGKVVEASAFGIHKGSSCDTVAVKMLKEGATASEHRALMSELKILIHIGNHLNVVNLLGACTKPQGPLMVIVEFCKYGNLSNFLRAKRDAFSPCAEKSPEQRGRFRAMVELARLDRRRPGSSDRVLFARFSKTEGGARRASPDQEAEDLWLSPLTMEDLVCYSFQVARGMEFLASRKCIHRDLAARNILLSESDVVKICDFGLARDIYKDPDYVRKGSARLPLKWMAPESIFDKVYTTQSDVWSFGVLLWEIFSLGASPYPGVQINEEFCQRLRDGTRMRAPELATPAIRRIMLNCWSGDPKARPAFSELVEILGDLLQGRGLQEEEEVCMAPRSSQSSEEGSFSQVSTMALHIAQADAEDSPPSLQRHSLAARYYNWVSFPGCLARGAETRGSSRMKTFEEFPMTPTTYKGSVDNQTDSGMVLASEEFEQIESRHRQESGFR
T1 sequence (P35968 20-1356): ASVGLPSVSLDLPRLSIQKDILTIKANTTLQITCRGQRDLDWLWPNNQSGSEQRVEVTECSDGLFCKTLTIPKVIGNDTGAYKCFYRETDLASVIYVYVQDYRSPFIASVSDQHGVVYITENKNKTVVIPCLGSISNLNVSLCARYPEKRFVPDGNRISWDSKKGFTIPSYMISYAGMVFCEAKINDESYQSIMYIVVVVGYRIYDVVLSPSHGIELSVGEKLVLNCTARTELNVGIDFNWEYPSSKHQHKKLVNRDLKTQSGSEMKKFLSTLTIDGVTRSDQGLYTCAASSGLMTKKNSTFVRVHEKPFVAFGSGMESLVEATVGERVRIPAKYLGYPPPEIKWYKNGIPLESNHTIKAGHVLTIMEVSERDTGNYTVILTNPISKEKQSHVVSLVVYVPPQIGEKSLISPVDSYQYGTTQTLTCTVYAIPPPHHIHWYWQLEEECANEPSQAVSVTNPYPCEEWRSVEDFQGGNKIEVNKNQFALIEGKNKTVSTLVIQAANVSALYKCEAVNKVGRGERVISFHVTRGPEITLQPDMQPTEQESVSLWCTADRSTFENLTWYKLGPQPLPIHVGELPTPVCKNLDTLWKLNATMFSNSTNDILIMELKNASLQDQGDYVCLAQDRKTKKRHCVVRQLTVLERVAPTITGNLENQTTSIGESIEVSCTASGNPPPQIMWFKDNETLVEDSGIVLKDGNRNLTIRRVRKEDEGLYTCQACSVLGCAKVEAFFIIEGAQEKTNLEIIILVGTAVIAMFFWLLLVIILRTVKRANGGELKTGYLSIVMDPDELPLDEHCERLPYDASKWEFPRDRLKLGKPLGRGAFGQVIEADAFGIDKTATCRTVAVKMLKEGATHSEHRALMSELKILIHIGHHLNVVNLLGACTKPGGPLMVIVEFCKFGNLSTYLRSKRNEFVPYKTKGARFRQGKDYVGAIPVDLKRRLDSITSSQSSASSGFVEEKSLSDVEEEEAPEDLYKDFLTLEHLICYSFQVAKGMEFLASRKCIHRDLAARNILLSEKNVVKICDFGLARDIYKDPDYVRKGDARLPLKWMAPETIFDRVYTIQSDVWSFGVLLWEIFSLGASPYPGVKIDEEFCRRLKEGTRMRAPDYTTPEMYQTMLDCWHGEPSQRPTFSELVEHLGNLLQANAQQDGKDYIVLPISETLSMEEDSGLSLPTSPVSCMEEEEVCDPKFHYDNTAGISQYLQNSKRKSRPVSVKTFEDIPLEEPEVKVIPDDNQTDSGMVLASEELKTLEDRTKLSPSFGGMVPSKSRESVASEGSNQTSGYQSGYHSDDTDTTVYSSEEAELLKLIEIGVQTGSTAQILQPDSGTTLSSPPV

Take `CCC(C(N)=O)c1ccccc1CCc1nc(Nc2ccc(C3CCNCC3)cc2)ncc1C(F)(F)F` (single isomer, unassigned) [Compound 1-1A, 2-(2-(2-(2-((4-(Piperidin-4-yl)phenyl)amino)-5-(trifluoromethyl)pyrimidin-4-yl)ethyl)phenyl)butanamide]: the pIC50 in experiment [1] is 6.48; in experiment [2] it was 6.99.

For the compound `CCC(C(N)=O)c1ccccc1CCc1nc(Nc2ccc(C3CCNCC3)cc2)ncc1C(F)(F)F` (single isomer, unassigned) [Compound 1-2A, 2-(2-(2-(2-((4-(Piperidin-4-yl)phenyl)amino)-5-(trifluoromethyl)pyrimidin-4-yl)ethyl)phenyl)butanamide], the pIC50 in experiment [1] was 6.50; in experiment [2], 7.12.

In turn, `CC(C(N)=O)c1ccccc1CCc1nc(Nc2cnn(C3CCN(C)CC3)c2)ncc1C(F)(F)F` (single isomer, unassigned) [Compound 57-1A, 2-(2-(2-(2-((1-(1-Methylpiperidin-4-yl)-1H-pyrazol-4-yl)amino)-5-(trifluoromethyl)pyrimidin-4-yl)ethyl)phenyl)propanamide] showed a pIC50 in experiment [3] of 6.29.

As for `NC(=O)C1(c2ccccc2CCc2nc(Nc3ccc(C4CCNCC4)cc3)ncc2C(F)(F)F)CC1` [Compound 2, 1-(2-(2-(2-((4-(Piperidin-4-yl)phenyl)amino)-5-(trifluoromethyl)pyrimidin-4-yl)ethyl)phenyl)cyclopropanecarboxamide], the figures for the pIC50 in experiment [3], in experiment [1] and in experiment [2] were 6.55, 7.59 and 8.00, respectively.

Consider `CN1CCC(c2ccc(Nc3ncc(C(F)(F)F)c(CCc4ccccc4C4(C(N)=O)CC4)n3)cc2)CC1` [Compound 3, 1-(2-(2-(2-((4-(1-methylpiperidin-4-yl)phenyl)amino)-5-(trifluoromethyl)pyrimidin-4-yl)ethyl)phenyl)cyclopropanecarboxamide], for which the pIC50 in experiment [3] is 5.75; in experiment [1], 7.57; in experiment [2], 8.05.

Consider `NC(=O)C1(c2ccccc2CCc2nc(Nc3ccc(C4CCNCC4)nc3)ncc2C(F)(F)F)CC1` [Compound 5, 1-(2-(2-(2-((6-(Piperidin-4-yl)pyridin-3-yl)amino)-5-(trifluoromethyl)pyrimidin-4-yl)ethyl)phenyl)cyclopropanecarboxamide], for which the pIC50 in experiment [3] was 5.39; in experiment [1] it was 7.29; in experiment [2] it was 7.55.

Regarding `NC(=O)C1(c2ccccc2CCc2nc(Nc3cccnc3)ncc2Cl)CC1` [Compound 6, 1-(2-(2-(5-chloro-2-(pyridin-3-ylamino)pyrimidin-4-yl)ethyl)phenyl)cyclopropanecarboxamide], the results for the pIC50 in experiment [3], in experiment [1] and in experiment [2] were 5.18, 7.77 and 8.10, respectively.

`NC(=O)C1(c2ccccc2CCc2nc(Nc3ccc(C4CCNCC4)cc3)ncc2Cl)CC1` [Compound 7, 1-(2-(2-(5-chloro-2-((4-(piperidin-4-yl)phenyl)amino)pyrimidin-4-yl)ethyl)phenyl)cyclopropanecarboxamide]: the figures for the pIC50 in experiment [1] and in experiment [2] were 7.42 and 8.00, respectively.

As for `CN1CCC(c2ccc(Nc3ncc(Cl)c(CCc4ccccc4C4(C(N)=O)CC4)n3)cc2)CC1` [Compound 8, 1-(2-(2-(5-chloro-2-((4-(1-methylpiperidin-4-yl)phenyl)amino)pyrimidin-4-yl)ethyl)phenyl)cyclopropanecarboxamide], the pIC50 was 6.05 in experiment [3], 7.72 in experiment [1] and 8.00 in experiment [2].

With `NC(=O)C1(c2ccccc2CCc2nc(Nc3ccc(C(F)(F)F)nc3)ncc2Cl)CC1` [Compound 9, 1-(2-(2-(5-chloro-2-((6-(trifluoromethyl)pyridin-3-yl)amino)pyrimidin-4-yl)ethyl)phenyl)cyclopropanecarboxamide], the pIC50 was […] in experiment [3], 7.12 in experiment [1] and 7.59 in experiment [2].

As for `Cn1cc(Nc2ncc(Cl)c(CCc3ccccc3C3(C(N)=O)CC3)n2)cn1` [Compound 13, 1-(2-(2-(5-Chloro-2-((1-methyl-1H-pyrazol-4-yl)amino)pyrimidin-4-yl)ethyl)phenyl)cyclopropanecarboxamide], the results for the pIC50 in experiment [1] and in experiment [2] were 8.05 and 8.40, respectively.

For `NC(=O)C1(c2ccccc2CCc2nc(Nc3cnn(C4CNC4)c3)ncc2Cl)CC1` [Compound 14, 1-(2-(2-(2-((1-(Azetidin-3-yl)-1H-pyrazol-4-yl)amino)-5-chloropyrimidin-4-yl)ethyl)phenyl)cyclopropanecarboxamide], the pIC50 is 6.45 in experiment [3], 7.52 in experiment [1] and 8.22 in experiment [2].

With `NC(=O)C1(c2ccccc2CCc2nc(Nc3ccc(C4CCNCC4)nc3)ncc2Cl)CC1` [Compound 15, 1-(2-(2-(5-Chloro-2-((6-(piperidin-4-yl)pyridin-3-yl)amino)pyrimidin-4-yl)ethyl)phenyl)cyclopropanecarboxamide], the pIC50 was 5.70 in experiment [3], 7.29 in experiment [1] and 7.96 in experiment [2].

For `NC(=O)C1(c2ccccc2CCc2nc(Nc3cnn(C4CCNCC4)c3)ncc2Cl)CC1` [Compound 17, 1-(2-(2-(5-Chloro-2-((1-(piperidin-4-yl)-1H-pyrazol-4-yl)amino)pyrimidin-4-yl)ethyl)phenyl)cyclopropanecarboxamide], the pIC50 in experiment [3] was 6.41; in experiment [1], 7.21; in experiment [2], 8.05.

`CN1CCC(n2cc(Nc3ncc(Cl)c(CCc4ccccc4C4(C(N)=O)CC4)n3)cn2)CC1` [Compound 18, 1-(2-(2-(5-chloro-2-((1-(1-methylpiperidin-4-yl)-1H-pyrazol-4-yl)amino)pyrimidin-4-yl)ethyl)phenyl)cyclopropanecarboxamide]: the pIC50 in experiment [3] was 7.68; in experiment [1], 8.30; in experiment [2] it was 8.52.

Regarding `NC(=O)C1(c2ccccc2CCc2nc(Nc3cn[nH]c3)ncc2Cl)CC1` [Compound 19, 1-(2-(2-(2-(1H-Pyrazol-4-ylamino)-5-chloropyrimidin-4-yl)ethyl)phenyl)cyclopropanecarboxamide], the pIC50 in experiment [3] was 6.61; in experiment [1] it was 7.96; in experiment [2], 8.52.

Consider `NC(=O)C1(c2ccccc2CCc2nc(Nc3cnn(C4CCNC4)c3)ncc2Cl)CC1` (stereo not drawn) [Compound 20, 1-(2-(2-(5-Chloro-2-(1-(pyrrolidin-3-yl)-1H-pyrazol-4-ylamino)pyrimidin-4-yl)ethyl)phenyl)cyclopropanecarboxamide], for which the results for the pIC50 in experiment [3], in experiment [1] and in experiment [2] were 5.76, 7.42 and 8.15, respectively.

As for `CC(NC(=O)OC(C)(C)C)c1ccc(Nc2ncc(Cl)c(CCc3ccccc3C3(C(N)=O)CC3)n2)cc1` (stereo not drawn) [Compound 24, tert-Butyl (1-(4-((4-(2-(1-carbamoylcyclopropyl)phenethyl)-5-chloropyrimidin-2-yl)amino)phenyl)ethyl)carbamate], the results for the pIC50 in experiment [1] and in experiment [2] were 7.60 and 8.70, respectively.

Turning to `CC(N)c1ccc(Nc2ncc(Cl)c(CCc3ccccc3C3(C(N)=O)CC3)n2)cc1` (stereo not drawn) [Compound 24A, 1-(2-(2-(2-((4-(1-Aminoethyl)phenyl)amino)-5-chloropyrimidin-4-yl)ethyl)phenyl)cyclopropanecarboxamide], the pIC50 was 6.68 in experiment [3] and 7.85 in experiment [2].

As to `Cc1cnc(Nc2cnn(C)c2)nc1CCc1ccccc1C(C)C(N)=O` (stereo not drawn) [Compound 51, 2-(2-(2-(5-Methyl-2-((1-methyl-1H-pyrazol-4-yl)amino)pyrimidin-4-yl)ethyl)phenyl)propanamide], the pIC50 in experiment [1] was 6.28; in experiment [2], 7.82.

Take `COc1ccc(Nc2ncc(C(F)(F)F)c(CCc3ccccc3C3(C(N)=O)CC3)n2)cn1` [Compound 64, 1-(2-(2-(2-((6-Methoxypyridin-3-yl)amino)-5-(trifluoromethyl)pyrimidin-4-yl)ethyl)phenyl)cyclopropanecarboxamide]: the pIC50 is 6.40 in experiment [1] and 8.10 in experiment [2].

For `NC(=O)C1(c2ccccc2CCc2nc(Nc3cnn(C4CCNCC4)c3)ncc2C(F)(F)F)CC1` [Compound 66, 1-(2-(2-(2-((1-(Piperidin-4-yl)-1H-pyrazol-4-yl)amino)-5-(trifluoromethyl)pyrimidin-4-yl)ethyl)phenyl)cyclopropanecarboxamide], the negative logarithm of the IC50 (pIC50) in experiment [2] is 8.15.

In the case of `CN1CCC(n2cc(Nc3ncc(C(F)(F)F)c(CCc4ccccc4C4(C(N)=O)CC4)n3)cn2)CC1` [Compound 67, 1-(2-(2-(2-((1-(1-Methylpiperidin-4-yl)-1H-pyrazol-4-yl)amino)-5-(trifluoromethyl)pyrimidin-4-yl)ethyl)phenyl)cyclopropanecarboxamide], the pIC50 in experiment [2] was 8.15.

Take `CN1CCC(c2ccc(Nc3ncc(C(F)(F)F)c(CCc4ccccc4C4(C(N)=O)CC4)n3)cn2)CC1` [Compound 69, 1-(2-(2-(2-((6-(1-Methylpiperidin-4-yl)pyridin-3-yl)amino)-5-(trifluoromethyl)pyrimidin-4-yl)ethyl)phenyl)cyclopropanecarboxamide]: the negative-log IC50 (pIC50) in experiment [2] was 7.20.

With `CC(N)c1ccc(Nc2ncc(C(F)(F)F)c(CCc3ccccc3C3(C(N)=O)CC3)n2)cc1` (stereo not drawn) [Compound 70A, 1-(2-(2-(2-(4-(1-Aminoethyl)phenylamino)-5-(trifluoromethyl)pyrimidin-4-yl)ethyl)phenyl)cyclopropanecarboxamide], in experiment [2], the pIC50 is 7.66.

In the case of `CC(=O)NC(C)c1ccc(Nc2ncc(C(F)(F)F)c(CCc3ccccc3C3(C(N)=O)CC3)n2)cc1` (stereo not drawn) [Compound 71, 1-(2-(2-(2-(4-(1-Acetamidoethyl)phenylamino)-5-(trifluoromethyl)pyrimidin-4-yl)ethyl)phenyl)cyclopropanecarboxamide], the pIC50 in experiment [2] was 8.00.

Regarding `NC(=O)C1(c2ccccc2CCc2nc(Nc3cnn(CCO)c3)ncc2Cl)CC1` [Compound 76], the pIC50 in experiment [2] was 8.40.

Regarding `COCCn1cc(Nc2ncc(Cl)c(CCc3ccccc3C3(C(N)=O)CC3)n2)cn1` [Compound 77], the pIC50 in experiment [2] is 8.52.
